Test results as given in the NIST ThermoML archive (doi:10.1021/je700015t).
Numbers after ± are expanded uncertainties.

conditions: 243.15 K; 101.33 kPa; Liquid

Question: Which mass density does the source give for CCCCCCCBr [1-bromoheptane] here?
Answer: 1191 ± 1.8 kg/m3

Question: Which mass density does the source give for CCCBr [1-bromopropane] here?
Answer: 1431.1 ± 1.9 kg/m3

same assay, conditions: 253.15 K; 101.33 kPa; Liquid

Question: Which mass density does the source give for CCCCCCBr [1-bromohexane] here?
Answer: 1218 ± 1.7 kg/m3

Question: Which mass density does the source give for CCCCCCCCBr [1-bromooctane] here?
Answer: 1151.1 ± 1.7 kg/m3

Question: For CCCCBr [1-bromobutane], which mass density is on record?
Answer: 1326.5 ± 1.7 kg/m3

Question: With CCCBr [1-bromopropane] as the compound, how does the mass density read?
Answer: 1415.4 ± 1.8 kg/m3

Question: Which mass density does the source give for CCCCCBr [1-bromopentane] here?
Answer: 1260.3 ± 2 kg/m3

same assay, conditions: 263.15 K; 101.33 kPa; Liquid

Question: For CCCCCCCBr [1-bromoheptane], which mass density is on record?
Answer: 1169.6 ± 1.6 kg/m3

Question: For CCCCCCCCBr [1-bromooctane], which mass density is on record?
Answer: 1140.9 ± 1.5 kg/m3

Question: For CCCCBr [1-bromobutane], which mass density is on record?
Answer: 1313.8 ± 1.6 kg/m3

Question: With CCCBr [1-bromopropane] as the compound, how does the mass density read?
Answer: 1400.3 ± 1.7 kg/m3

Question: With CCCCCBr [1-bromopentane] as the compound, how does the mass density read?
Answer: 1249.9 ± 1.9 kg/m3

same assay, conditions: 273.15 K; 101.33 kPa; Liquid

Question: With CCCCCCCBr [1-bromoheptane] as the compound, how does the mass density read?
Answer: 1159.2 ± 1.4 kg/m3

Question: With CCCCCCBr [1-bromohexane] as the compound, how does the mass density read?
Answer: 1195.3 ± 1.5 kg/m3

Question: Which mass density does the source give for CCCCCCCCBr [1-bromooctane] here?
Answer: 1131.2 ± 1.4 kg/m3

Question: With CCCCCCCCCCCCBr [1-bromododecane] as the compound, how does the mass density read?
Answer: 1056.5 ± 1.3 kg/m3

Question: Which mass density does the source give for CCCCBr [1-bromobutane] here?
Answer: 1300.5 ± 1.5 kg/m3

Question: For CCCBr [1-bromopropane], which mass density is on record?
Answer: 1385.3 ± 1.6 kg/m3

Question: With CCCCCBr [1-bromopentane] as the compound, how does the mass density read?
Answer: 1239.6 ± 1.8 kg/m3

same assay, conditions: 283.15 K; 101.33 kPa; Liquid

Question: Which mass density does the source give for CCCCCCCBr [1-bromoheptane] here?
Answer: 1148.7 ± 1.3 kg/m3

Question: With CCCCCCBr [1-bromohexane] as the compound, how does the mass density read?
Answer: 1183.8 ± 1.3 kg/m3

Question: For CCCCCCCCBr [1-bromooctane], which mass density is on record?
Answer: 1121.2 ± 1.3 kg/m3

Question: With CCCCCCCCCCCCBr [1-bromododecane] as the compound, how does the mass density read?
Answer: 1048.5 ± 1.2 kg/m3

Question: For CCCCBr [1-bromobutane], which mass density is on record?
Answer: 1286.4 ± 1.4 kg/m3

Question: For CCCBr [1-bromopropane], which mass density is on record?
Answer: 1369.4 ± 1.5 kg/m3

same assay, conditions: 293.15 K; 101.33 kPa; Liquid

Question: Which mass density does the source give for CCCCCCCCBr [1-bromooctane] here?
Answer: 1111 ± 1.2 kg/m3

Question: With CCCCCCCCCCCCBr [1-bromododecane] as the compound, how does the mass density read?
Answer: 1039.8 ± 1.1 kg/m3

Question: With CCCCCBr [1-bromopentane] as the compound, how does the mass density read?
Answer: 1214.9 ± 1.6 kg/m3

same assay, conditions: 298.15 K; 101.33 kPa; Liquid

Question: Which mass density does the source give for CCCCCCCBr [1-bromoheptane] here?
Answer: 1132.9 ± 1.3 kg/m3

Question: Which mass density does the source give for CCCCCCBr [1-bromohexane] here?
Answer: 1166.8 ± 1.3 kg/m3

Question: For CCCCCCCCBr [1-bromooctane], which mass density is on record?
Answer: 1106 ± 1.3 kg/m3

Question: Which mass density does the source give for CCCCCCCCCCCCBr [1-bromododecane] here?
Answer: 1035.6 ± 1.2 kg/m3

Question: Which mass density does the source give for CCCCBr [1-bromobutane] here?
Answer: 1265.7 ± 1.3 kg/m3

Question: Which mass density does the source give for CCCBr [1-bromopropane] here?
Answer: 1344.5 ± 1.4 kg/m3

Question: With CCCCCBr [1-bromopentane] as the compound, how does the mass density read?
Answer: 1208.5 ± 1.6 kg/m3

same assay, conditions: 323.15 K; 101.33 kPa; Liquid

Question: For CCCCCCCBr [1-bromoheptane], which mass density is on record?
Answer: 1106 ± 1.5 kg/m3

Question: Which mass density does the source give for CCCCCCBr [1-bromohexane] here?
Answer: 1137.3 ± 1.5 kg/m3

Question: Which mass density does the source give for CCCCCCCCBr [1-bromooctane] here?
Answer: 1080.6 ± 1.5 kg/m3

Question: With CCCCCCCCCCCCBr [1-bromododecane] as the compound, how does the mass density read?
Answer: 1014 ± 1.4 kg/m3

Question: With CCCCBr [1-bromobutane] as the compound, how does the mass density read?
Answer: 1229.5 ± 1.5 kg/m3

Question: Which mass density does the source give for CCCCCBr [1-bromopentane] here?
Answer: 1177.1 ± 1.8 kg/m3

same assay, conditions: 343.15 K; 101.33 kPa; Liquid

Question: For CCCCCCCBr [1-bromoheptane], which mass density is on record?
Answer: 1084.5 ± 1.6 kg/m3

Question: For CCCCCCBr [1-bromohexane], which mass density is on record?
Answer: 1113.7 ± 1.6 kg/m3

Question: For CCCCCCCCBr [1-bromooctane], which mass density is on record?
Answer: 1060.5 ± 1.6 kg/m3

Question: For CCCCCCCCCCCCBr [1-bromododecane], which mass density is on record?
Answer: 996.2 ± 1.5 kg/m3

Question: With CCCCCBr [1-bromopentane] as the compound, how does the mass density read?
Answer: 1151 ± 1.9 kg/m3

same assay, conditions: 363.15 K; 101.33 kPa; Liquid

Question: With CCCCCCBr [1-bromohexane] as the compound, how does the mass density read?
Answer: 1090.8 ± 1.8 kg/m3

Question: For CCCCCCCCBr [1-bromooctane], which mass density is on record?
Answer: 1039.5 ± 1.8 kg/m3

Question: With CCCCCCCCCCCCBr [1-bromododecane] as the compound, how does the mass density read?
Answer: 979 ± 1.7 kg/m3

Question: Which mass density does the source give for CCCCCBr [1-bromopentane] here?
Answer: 1124.7 ± 2 kg/m3

same assay, conditions: 383.15 K; 101.33 kPa; Liquid

Question: For CCCCCCBr [1-bromohexane], which mass density is on record?
Answer: 1066.1 ± 1.9 kg/m3

Question: For CCCCCBr [1-bromopentane], which mass density is on record?
Answer: 1097.4 ± 2.2 kg/m3

same assay, conditions: 393.15 K; 101.33 kPa; Liquid

Question: With CCCCCCCBr [1-bromoheptane] as the compound, how does the mass density read?
Answer: 1026.6 ± 2 kg/m3

Question: With CCCCCCCCBr [1-bromooctane] as the compound, how does the mass density read?
Answer: 1008.4 ± 2 kg/m3

Question: Which mass density does the source give for CCCCCCCCCCCCBr [1-bromododecane] here?
Answer: 952.4 ± 1.9 kg/m3

Question: For CCCCCBr [1-bromopentane], which mass density is on record?
Answer: 1083.4 ± 2.2 kg/m3

same assay, conditions: 403.15 K; 101.33 kPa; Liquid

Question: With CCCCCCBr [1-bromohexane] as the compound, how does the mass density read?
Answer: 1040.9 ± 2.1 kg/m3

same assay, conditions: 423.15 K; 101.33 kPa; Liquid

Question: For CCCCCCCCCCCCBr [1-bromododecane], which mass density is on record?
Answer: 923.7 ± 2.2 kg/m3
